These results are taken from patent publication US12391641B2, “Prostaglandin EP4 receptor antagonist compounds” (NXERA PHARMA UK LIMITED, priority 2019, dated 2025).

Structures are written as SMILES. Some results are limits rather than exact numbers.

T1 sequence (P35408 whole entry): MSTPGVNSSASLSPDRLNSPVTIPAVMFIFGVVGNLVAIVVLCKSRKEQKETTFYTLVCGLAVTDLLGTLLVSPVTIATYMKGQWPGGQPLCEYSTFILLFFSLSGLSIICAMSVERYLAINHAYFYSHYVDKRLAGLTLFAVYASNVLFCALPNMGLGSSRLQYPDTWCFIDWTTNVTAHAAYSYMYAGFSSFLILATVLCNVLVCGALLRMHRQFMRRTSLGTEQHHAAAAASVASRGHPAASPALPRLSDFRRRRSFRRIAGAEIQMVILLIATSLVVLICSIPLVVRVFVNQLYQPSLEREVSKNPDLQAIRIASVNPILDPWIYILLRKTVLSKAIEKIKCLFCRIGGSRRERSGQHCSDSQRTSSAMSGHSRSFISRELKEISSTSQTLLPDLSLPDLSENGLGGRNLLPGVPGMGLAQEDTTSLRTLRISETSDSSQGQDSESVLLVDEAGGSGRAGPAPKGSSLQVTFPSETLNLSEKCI

The assay has as its target T1, Human prostaglandin E2 receptor 4 (EP4) (Homo sapiens, UniProt P35408).
T1 construct: expressed in transfected cells; host or cells: HEK293 cells transduced with EP4 BacMam virus
The assay can be described thus: cAMP Gs Functional Assay (HTRF cAMP dynamic-2), antagonism of PGE2. In kind it is cell-based. Conditions: HEK293 cells transfected with EP4 BacMam virus; PGE2 challenge at EC80 (7 nM); pIC50 converted to functional pKb with a modified Cheng Prussoff equation; read-out: Human EP4 fpKb (converted). On the procedure:
Cloning, Baculovirus generation, large scale infection of HEK293 cells and membrane preparation: Human prostaglandin E2 receptor 4 (EP4) was cloned into pBacMam expression vector (GeneScript, UK). Transposition of EP4 DNA was performed using Invitrogen's Bac-to-Bac Baculovirus Expression Systems. P0 baculovirus was generated by transfecting SF9 Cells with bacmid DNA using Cellfectin II transfection reagent (ThermoFisher Scientific, UK, catalog number 10362-100). Following P0 generation P1 virus was then generated ready for large scale infection and membrane preparation. HEK293 cells were grown in DMEM+Glutamax, supplemented with 10% heat inactivated fetal bovine serum (FBS). Cells were infected at a seeding density of 3.5 million cells/mL in 500 cm^3 flasks at 5% v/v EP4 Bacman. Expression was carried out over 36 hr period at 37° C. with 5% CO2. The cells were removed using PBS and a cell scrapper. The cell culture was centrifuged at 2500 RPM for 10 mins at 4° C. The supernatant was then poured off and the pellet stored at −80° C. The pellet was defrosted and re-suspended in 15 mL of homogenising buffer (20 mM HEPES, 10 mM EDTA, pH 7.4). Then homogenised in mechanical homogeniser (VMR) for 10 seconds. The membrane was centrifuged in centrifuge tubes at 40,000 g for 15 mins at 4° C. The supernatant was poured away and re-suspended in 15 mL of homogenising buffer. Homogenised for 20 seconds. The membrane was centrifuged at 40,000 g for 45 mins at 4° C. The membrane was re-suspended in 3 mL of storage buffer (20 mM HEPES, 0.1 mM EDTA, pH 7.4) mixing well. The resulting membranes were then stored at −80° C.
cAMP Gs Functional Assay: cAMP production following EP4 receptor activation was determined using the Homogeneous Time-Resolved Fluorescence (HTRF) cAMP dynamic-2 assay (Cisbio, France). HEK293 cells were transfected using a 0.5% EP4 Bacman virus for 36 hours, before dissociating the cells, and freezing at […].
On the day of testing, increasing concentration of test compounds, alongside positive controls (1 uM ONO-AE3-208) and negative control (DMSO (Sigma-Aldrich, UK) were added to a ProxiPlate-384 Plus, White 384-shallow well Mircoplate, (PerkinElmer, USA) using the ECHO dispense.
Cells were defrosted in a water bath and resuspended in DMEM supplemented with 10% FBS before centrifuging at 1200 RPM for 5 mins to form a pellet. The pellet was resuspended in assay buffer (DMEM+0.5 mM IBMX (Tocris, Abingdon, UK, Catalog Number 2845)) to a 1×10^6 cells/mL. Cell suspension, for a final assay concentration of 5000 cell/well was added using the multidrop to the pre-dispensed assay plate. The plate was then incubated at 37° C. for 30 mins, with 5% CO2. After incubation, EC80 concentration (7 nM) of PGE2 (EP4 agonist) was added to the plate. In parallel, a PGE2 dose-response curve was dispense to a separate plate. Assay buffer was then dispensed on top. The cAMP production was determined as manufacturer's instructions, before plates were read on a PheraStar fluorescence plate reader (BMG LabTech, Germany).
The pIC50 was converted to a functional pKb value using a modified Cheng Prussoff equation where Kd=agonist EC50 and Lhot=agonist challenge concentration;
(In general: In TR-FRET formats the signal depends on donor and acceptor labels being close together.)
In the case of `CC(C)[C@@H](OCc1ccc(C(F)(F)F)cc1)C(=O)N[C@@H](C)c1ccc(C(=O)NS(C)(=O)=O)cc1` [Example 53, 4-((S)-1-((R)-3-methyl-2-((4-(trifluoromethyl)benzyl)oxy)butanamido)ethyl)-N-(methylsulfonyl)benzamide], the Ki was 64.6 nM.
As for `CC(C)[C@@H](OCc1cccc(C#N)c1)C(=O)NC1(c2ccc(C(=O)O)cc2)CC1` [Example 54, (R)-4-(1-(2-((3-cyanobenzyl)oxy)-3-methylbutanamido)cyclopropyl)benzoic acid], the Ki was above 12900 nM.
Consider `CC(C)[C@@H](OCc1ccc2c(c1)OC(F)(F)O2)C(=O)NC1(c2ccc(C(=O)O)cc2)CC1` [Example 55, (R)-4-(1-(2-((2,2-difluorobenzo[d][1,3]dioxol-5-yl)methoxy)-3-methylbutanamido)cyclopropyl)benzoic acid], for which the Ki was 0.479 nM.
As for `CCS(=O)(=O)c1cccc(CO[C@@H](C(=O)NC2(c3ccc(C(=O)O)cc3)CC2)C(C)C)c1` [Example 56, (R)-4-(1-(2-((3-(ethylsulfonyl)benzyl)oxy)-3-methylbutanamido)cyclopropyl)benzoic acid], the Ki is 7.24 nM.
`CC(C)[C@@H](OCc1ccc(F)c(OC(F)F)c1)C(=O)NC1(c2ccc(C(=O)O)cc2)CC1` [Example 57, (R)-4-(1-(2-((3-(difluoromethoxy)-4-fluorobenzyl)oxy)-3-methylbutanamido)cyclopropyl)benzoic acid]: the Ki was 0.372 nM.
To `CC(C)[C@@H](OCc1cccc(OC(F)(F)F)c1)C(=O)NC1(c2ccc(C(=O)O)cc2)CC1` [Example 58, (R)-4-(1-(3-methyl-2-((3-(trifluoromethoxy)benzyl)oxy)butanamido)cyclopropyl)benzoic acid] belongs above 12900 nM; to `CC(C)[C@@H](OCc1ccc(C(F)(F)F)cc1)C(=O)NCc1ccc(C(=O)O)cc1` [Example 59, (R)-4-((3-methyl-2-((4-(trifluoromethyl)benzyl)oxy)butanamido)methyl)benzoic acid], 9.77 nM; to `COCc1cccc(CO[C@@H](C(=O)NC2(c3ccc(C(=O)O)cc3)CC2)C(C)C)c1` [Example 60, (R)-4-(1-(2-((3-(methoxymethyl)benzyl)oxy)-3-methylbutanamido)cyclopropyl)benzoic acid], 1.91 nM.
On to `CC(C)[C@@H](OCc1ccc(C(F)F)c(F)c1)C(=O)NC1(c2ccc(C(=O)O)cc2)CC1` [Example 61, (R)-4-(1-(2-((4-(difluoromethyl)-3-fluorobenzyl)oxy)-3-methylbutanamido)cyclopropyl)benzoic acid], for which the Ki is 0.339 nM.
For `CC(C)[C@@H](OCc1ccc(C(F)F)cc1)C(=O)NC1(c2ccc(C(=O)O)cc2)CC1` [Example 62, (R)-4-(1-(2-((4-(difluoromethyl)benzyl)oxy)-3-methylbutanamido)cyclopropyl)benzoic acid], the Ki is 0.398 nM.
`CC(C)[C@@H](OCc1ccc(C(F)(F)F)cc1)C(=O)NC1(c2ccc(C(=O)NS(C)(=O)=O)cc2)CC1` [Example 63, (R)-4-(1-(3-methyl-2-((4-(trifluoromethyl)benzyl)oxy)butanamido)cyclopropyl)-N-(methylsulfonyl)benzamide]: the Ki is 25.7 nM.
Turning to `CC(C)[C@@H](OCc1ccc(C(F)(F)F)cc1)C(=O)NC(C)(C)c1ccc(C(=O)O)cc1` [Example 64, (R)-4-(2-(3-methyl-2-((4-(trifluoromethyl)benzyl)oxy)butanamido)propan-2-yl)benzoic acid], the Ki was 47.9 nM.
Turning to `CC(C)[C@@H](OCc1cccc(C2CC2)c1)C(=O)NC1(c2ccc(C(=O)O)cc2)CC1` [Example 65, (R)-4-(1-(2-((3-cyclopropylbenzyl)oxy)-3-methylbutanamido)cyclopropyl)benzoic acid], the Ki is above 209 nM.
Regarding `CC(C)[C@@H](OCc1ccn2ccnc2c1)C(=O)N[C@@H](C)c1ccc(C(=O)O)cc1` [Example 66, 4-((S)-1-((R)-2-(imidazo[1,2-a]pyridin-7-ylmethoxy)-3-methylbutanamido)ethyl)benzoic acid], the Ki was 34.7 nM.
